Reference: patent EP2924040A1, “2-Amino-1-(o-tolyl)pyrrolo[3,2-b]quinoxaline-3-carboxamide derivates” (Universität Zürich, priority 2014, dated 2015)

Key:
EphB4 = target: T1, EphB4 (Homo sapiens, UniProt P54760); assay: Cellular phosphorylation assay (EphB4 autophosphorylation, sandwich ELISA); assay type: cell-based; set-up: stably transfected to overexpress full-length human EphB4; host or cells: mouse embryonic fibroblast cells; conditions: mouse embryonic fibroblast cells overexpressing full-length human EphB4; 90 min at 37 °C; stimulated with murine ephrinB2-Fc
T1 sequence (P54760 16-987): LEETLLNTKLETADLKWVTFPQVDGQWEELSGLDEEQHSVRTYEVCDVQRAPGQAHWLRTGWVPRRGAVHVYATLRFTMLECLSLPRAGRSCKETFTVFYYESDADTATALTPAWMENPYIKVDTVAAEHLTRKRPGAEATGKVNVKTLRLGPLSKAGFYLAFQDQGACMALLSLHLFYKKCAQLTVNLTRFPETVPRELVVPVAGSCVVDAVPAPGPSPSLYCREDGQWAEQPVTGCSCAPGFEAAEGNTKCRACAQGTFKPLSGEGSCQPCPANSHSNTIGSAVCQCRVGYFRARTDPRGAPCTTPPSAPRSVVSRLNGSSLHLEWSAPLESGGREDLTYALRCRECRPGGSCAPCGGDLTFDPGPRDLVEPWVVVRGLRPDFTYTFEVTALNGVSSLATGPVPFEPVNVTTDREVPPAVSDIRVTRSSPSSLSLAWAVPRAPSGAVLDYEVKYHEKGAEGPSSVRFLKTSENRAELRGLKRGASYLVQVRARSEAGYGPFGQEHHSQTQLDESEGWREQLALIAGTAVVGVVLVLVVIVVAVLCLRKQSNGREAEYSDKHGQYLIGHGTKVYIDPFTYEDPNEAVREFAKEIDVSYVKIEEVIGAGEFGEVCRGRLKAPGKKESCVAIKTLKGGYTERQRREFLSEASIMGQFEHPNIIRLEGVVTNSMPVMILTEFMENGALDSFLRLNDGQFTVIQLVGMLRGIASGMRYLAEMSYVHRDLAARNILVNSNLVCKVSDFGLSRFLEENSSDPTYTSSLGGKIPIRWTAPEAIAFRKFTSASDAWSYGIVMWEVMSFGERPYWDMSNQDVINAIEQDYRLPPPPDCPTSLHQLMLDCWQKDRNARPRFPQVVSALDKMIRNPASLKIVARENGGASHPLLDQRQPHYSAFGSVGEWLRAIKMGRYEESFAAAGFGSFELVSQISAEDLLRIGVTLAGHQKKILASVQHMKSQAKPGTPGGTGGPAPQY
Method: Mouse embryonic fibroblast cells, stably transfected to overexpress full-length human EphB4, were plated at 4×10^4 cells/well in DMEM supplemented with 10% FCS in 48-well culture dishes. Medium was replaced by DMEM without FCS before test compounds prediluted in 100% DMSO were added (final DMSO concentration of 1 %). […] Quantification of EphB4 phosphorylation was assessed in a 96-well plate via sandwich ELISA using a myc capture antibody and an antiphosphotyrosine detection antibody.

[1] = In vivo pharmacokinetics in blood plasma; conditions: male CD-1 mice
Method: Evaluation of the in vivo pharmacokinetics of a subset of compounds was performed through analysis of compound concentration in the blood plasma of male CD-1 (ICD) mice (each weighing 20-30 g) over a 24 hour period (at time points of 3, 10, 30, 60, 120, 240, 360 and 1440 minutes) following a single oral (PO) and intravenous (IV, in tail vein) administration of a compound dose corresponding to 5 mg of compound/kg of mouse body weight (PO) and 1 mg of compound/kg of mouse body weight (IV). For IV dosing, each compound was formulated as a clear solution in DMSO/Solutol® HS 15/phosphate-buffered saline, pH 7.4 (PBS) (5/5/90, v/v/v). For PO dosing, compounds were formulated as a homogeneous suspension in DMSO/1% methylcellulose (5/95, v/v).
At the relevant time point, blood samples (300-400 µL) were collected from the mice under general inhalant anaesthesia by cardiac puncture and stored on ice in 0.6 mL polypropylene heparin-lithium-coated tubes. Within 1 hour of collection, each tube was centrifuged at 2500 G for 15 minutes at 4°C and harvested plasma stored at -20°C.
Compound concentration in plasma at each time point was determined following acetonitrile precipitation of each sample followed by HPLC-MS analysis performed in triplicates, i.e., based on the mean of the compound concentration at that time point in blood samples of three mice.
Table 3: In vivo pharmacokinetics (min: minutes)

HT-29 = assay: Cell culture and GI50 determination (resazurin); assay type: cell-based; conditions: Homo sapiens; HT-29, resazurin
Method: MDA-MB-231, HT-29, KM12, HOP-92 and A498 cells were plated at 10,000 cells per well (100 µL per well) in 96-well culture dishes and allowed to incubate for 24 h. The old media was removed, the cells were washed with PBS (phosphate-buffered saline) and fresh media was added. A 5 mmol/L solution of inhibitor (in 100% DMSO) was serially diluted in the culture media (12 different concentrations were used) and allowed to incubate for 72 h (MDA-MB-231) or 48h (A498). Control cells were treated with the same DMSO concentrations. After the incubation period the media was once more removed and the cells were washed with PBS to then be incubated with fresh media containing 86 nmol/L resazurin. After 3 hours, the fluorescence was quantified using a fluorescence microplate reader (Biotek, FLx800™) at the respective excitation and emission wavelength of 560 and 590 nm. Resazurin becomes fluorescent under mitochondrial reduction and its emission directly correlates with the metabolic stability of the cells. The measured fluorescence values were corrected from the control samples containing DMSO and GI50 values were determined by plotting the fraction of metabolically active cells against the log of the drug concentration. All measurements were performed at least in triplicate.

## Cc1ccc(O)cc1-n1c(N)c(C(N)=O)c2nc3ccccc3nc21 [Compound 2, 2-Amino-1-(5-hydroxy-2-methylphenyl)-1H-pyrrolo[2,3-b]quinoxaline-3-carboxamide]
EphB4
  IC50: < 0.006 µM
[1]; IV 1 mg/kg, plasma
  T1/2 (min, IV): 1.68 h
[1]; [AUClast(PO)*Dose(IV)] / [AUClast(IV)*Dose(PO)]
  Bioavailibility (%): 25%
[1]; mouse, PO 5 mg/kg, plasma
  Cmax: 240 ng/mL
[1]; mouse, PO 5 mg/kg, plasma, read-out: T1/2 (min, PO)
  half-life: 1.67 h
[1]; mouse, PO 5 mg/kg, plasma, read-out: Tmax (min, PO) (converted)
  Tmax: 0.5 h
HT-29
  GI50: 4.59 µM
